Experimental data as given in US10639327B1, “Nano-calcium carbonate” (Washington University in St. Louis, priority 2015, dated 2020).

Columns and labels:
2F2B cells = assay: Fluorescent micrographs of cells treated with DOX nanoparticles vs free DOX; format: cell-based; conditions: 30 min treatment, DOX fluorescence
Method: FIG. 4A depicts fluorescent micrographs showing 2F2B cells treated for 30 min with αvβ3-targeted perfluorocarbon nanoparticles incorporating DOX (Left) vs. equimolar exposure of free DOX (Middle).
Not only was significant amount delivered to the nucleus (white arrow), the cytoplasmic content of DOX remained high (yellow arrow), providing a continuous source of DOX for nuclear translocation. […] The data also confirm that DOX fluorescence, which was used to obtain these images, will provide sufficient contrast for imaging DOX's intracellular trafficking to the nuclei.

HT1080 tumors = conditions: I.V., 0.3-0.4 g/Kg (~10x the nanoparticle dosage)
Method: For determining pHe changes in vivo post bolus particle Intravenous injection, HT1080 tumors were grown subcutaneously in dorsal flanks of athymic nude mice, in dorsal bilateral flanks. Tumors generally grew in one flank. When the tumors growth reached approximately 50 mm^3 or greater, the extracellular pH was measured using an external pH electrode. […] Treatments were discontinued for at least 5 days before performing the in vivo pH measurements. […] The pH was measured using an extracellular pH electrode implanted into the tumor following a 15 min equilibration period after electrode entry. The pH electrode was calibrated within the week. About 1 mg of each size of particles (20 nm, 100 nm, 300 nm) in a 100 μL solution of PBS, CaCl2, MgCl2 and 2% bovine serum albumin was injected intravenously in individual mice. […] Tumor sizes at time of injection for this experiment were 12 mm×9 mm (20 nm particles), 13.7 mm×12.5 mm (100 nm), 13.5 mm×15.5 mm (300 nm), 12.5×16.5 mm (0.84% bicarbonate), 12.5×16.5 mm (7.5% bicarbonate), and 12.5×16.5 mm (vector). In general, the pH was then followed each minute for a minimum of 1 hour, or up to 3 hours if any changes were seen. […] Bleeding, if any, was also noted.

Row | Structure (SMILES) | cytoplasmic content of DOX (2F2B cells) | tumor pH change (HT1080 tumors)
1 | COc1cccc2c1C(=O)c1c(O)c3c(c(O)c1C2=O)C[C@@](O)(C(=O)CO)C[C@@H]3O[C@H]1C[C@H](N)[C@H](O)[C@H](C)O1 [free DOX, Doxorubicin] | depleted rapidly | –
2 | O=C([O-])O.[Na+] [sodium bicarbonate] | – | did not induce a measurable pH change
